Laboratory results: patent publication US20050043341A1, “3-'Hydroxy-(-4-trifluoromethylphenyl)-methyl-7-spirocyclobutyl-5,6,7 8-tetrahydroquinolin-5-ol derivatives and the use of the same as cholesterol ester transfer protein (cetp) inhibitors” (priority 2001, published 2005)
Like-named read-outs stand apart in the source and are kept apart here.

Key:
[1] = biological target: T1, CETP activity in the serum (Homo sapiens, UniProt P11597); test: Ex vivo activities on transgenic hCETP mice (serum CETP activity after oral administration); conditions: mouse, cholesteryl ester transport in serum
T1 construct: determination of its basal CETP activity in the serum; from tissue; host or cells: serum of transgenic hCETP mice
T1 sequence (P11597 18-493): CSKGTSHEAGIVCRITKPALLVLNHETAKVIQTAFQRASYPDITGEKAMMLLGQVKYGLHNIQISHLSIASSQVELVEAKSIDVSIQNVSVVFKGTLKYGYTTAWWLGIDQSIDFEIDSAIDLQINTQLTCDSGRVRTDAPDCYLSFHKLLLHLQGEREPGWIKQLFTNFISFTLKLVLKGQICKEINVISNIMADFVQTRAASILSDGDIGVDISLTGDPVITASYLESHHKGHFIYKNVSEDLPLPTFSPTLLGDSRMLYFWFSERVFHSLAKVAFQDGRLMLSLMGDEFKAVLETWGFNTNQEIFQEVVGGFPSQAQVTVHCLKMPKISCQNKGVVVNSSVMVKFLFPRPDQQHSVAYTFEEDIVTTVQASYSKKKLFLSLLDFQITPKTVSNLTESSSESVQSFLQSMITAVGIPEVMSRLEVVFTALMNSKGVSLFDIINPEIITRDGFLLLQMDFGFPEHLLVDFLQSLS
Experimental: To test for CETP-inhibitory activity, the substances are administered orally using a stomach tube to transgenic hCETP mice of our own breeding (Dinchuk et al. BBA (1995) 1295-301). To this end, male mice are randomly assigned to groups having an equal number of animals, as a rule n=3, one day before the start of the experiment. Before administration of the substance, blood is taken from each mouse by puncture of the retroorbital venous plexus for the determination of its basal CETP activity in the serum (T1). The test substance is then administered to the animals using the stomach tube. At specific times after administration of the test substance, blood is taken from the animals by puncture a second time (T2), as a rule 1, or 3 and 6 h after substance administration, but if appropriate this can also be carried out at another time.
In order to be able to assess the inhibitory activity of a substance, for each time, i.e. 1 or 3 or 6 h, a corresponding control group is employed whose animals only receive the formulating agent without substance. In the control animals, the second blood sampling per animal is carried out as in the substance-treated animals in order to be able to determine the change in the CETP activity without inhibitor over the corresponding experimental time interval (1, 3 or 6 h).
After termination of the clotting, the blood samples are centrifuged and the serum is removed by pipette.
For the determination of the CETP activity, the cholesteryl ester transport over 4 h is determined. To this end, as a rule 2 μl of serum are employed in the test batch and the test is carried out as described under “CETP fluorescence test”.
The differences in the cholesteryl ester transport (pM CE*/h (T2)−pM CE*/h (T1)) are calculated for each animal and averaged in the groups. A substance which at one of the times reduces the cholesteryl ester transport by >30% is regarded as active.

CETP = biological target: T2, CETP (Homo sapiens, UniProt P11597); test: CETP-SPA test; assay type: biochemical; conditions: 3H-cholesterol ester transfer from HDL to biotin-LDL, 37° C., 18 h
T2 construct: CETP is obtained in partially purified form from human plasma; from tissue; host or cells: human plasma
T2 sequence (P11597 18-493): T1 sequence (P11597 18-493)
Experimental: CETP is obtained in partially purified form from human plasma by differential centrifugation and column chromatography and used for the test. To this end, human plasma is adjusted to a density of 1.21 g per ml using NaBr and centrifuged at 4° C. at 50000 rpm for 18 h. The bottom fraction (d>1.21 g/ml) is applied to a Sephadex® Phenyl-Sepharose 4B (Pharmacia) column, washed with 0.15 M NaCl/0.001 M tris HCl pH 7.4 and then eluted with dist. water. Die CETP-active fractions are pooled, dialysed against 50 mM Na acetate pH 4.5 and applied to a CM-Sepharose® (Pharmacia) column. The mixture is then eluted using a linear gradient (0-1 M NaCl). The pooled CETP fractions are dialysed against 10 mM TrisHCl pH 7.4 and then further purified by chromatography on a Mono Q® column (Pharmacia).
50 ml of fresh human EDTA plasma are adjusted to a density of 1.12 using NaBr and centrifuged at 4° C. in a Ty 65 rotor at 50000 rpm for 18 h. The upper phase is used for the obtainment of cold LDL. The lower phase is dialysed against 3×41 of PDB buffer (10 mM tris/HCl pH 7.4, […], 1 mM EDTA, 0.02% NaN3). Per 10 ml of retentate volume, 20 μl of 3H-cholesterol (Dupont NET-725; 1 μC/μl dissolved in ethanol!) is then added and the mixture is incubated at 37° C. under N2 for 72 h.
The batch is then adjusted to the density 1.21 using NaBr and centrifuged at 20° C. in a Ty 65 rotor at 50000 rpm for 18 h. The upper phase is recovered and the lipoprotein fractions are purified by gradient centrifugation. To this end, the isolated, labelled lipoprotein fraction is adjusted to a density of 1.26 using NaBr. 4 ml each of this solution are covered in centrifuged tubes (SW 40 rotor) with a layer of 4 ml of a solution of density 1.21 and 4.5 ml of a solution of 1.063 (density solutions of PDB buffer and NaBr) and then centrifuged for 24 h at 38000 rpm and 20° C. in the SW 40 rotor. The intermediate layer lying between the density 1.063 and 1.21, containing the labelled HDL, is dialysed against 3×100 volumes of PDB buffer at 4° C.
The retentate contains radiolabelled ^3H-CE-HDL, which, adjusted to about 5×10^6 cmp per ml, is used for the test.
For testing of the CETP activity, the transfer of ^3H-cholesterol ester from human HD lipoproteins to biotinylated LD lipoproteins is measured.
The reaction is ended by addition of streptavidin-SPA®beads (Amersham) and the transferred radioactivity is determined directly in a liquid scintillation counter.
In the test batch, 10 μl of HDL-^3H-cholesterol ester (˜50000 cpm) are incubated at 37° C. for 18 h with 10 μl of biotin-LDL (Amersham) in 50 mM Hepes/0.15 M NaCl/0.1% bovine serum albumin/0.05% NaN3 pH 7.4 containing 10 μl of CETP (1 mg/ml) and 3 μl of solution of the substance to be tested (dissolved in 10% DMSO/1% RSA). 200 μl of the SPA-streptavidin bead solution (TRKQ 7005) are then added, incubated further with shaking for 1 h and then measured in a scintillation counter.
Corresponding incubations with 10 μl of buffer, 10 μl of CETP at 4° C. and 10 μl of CETP at 37° C. serve as controls.
The activity transferred in the control batches with CETP at 37° C. is rated as 100% transfer. The substance concentration at which this transfer is reduced to half is specified as the IC50 value.

[2] = 1 h after administration, read-out: % inhibition at 30 mg/kg, 1 h
[3] = 3 h after administration, read-out: % inhibition at 30 mg/kg, 3 h
[4] = 6 h after administration, read-out: % inhibition at 30 mg/kg, 6 h

inhibition at 30 mg/kg [1, 2] [%] | inhibition at 30 mg/kg [1, 3] [%] | inhibition at 30 mg/kg [1, 4] [%] | IC50 (CETP) [nM] | Structure (SMILES)
72 | 64 | 60 | 15 | CC(C)c1nc2c(c(-c3ccc(F)cc3)c1[C@@H](O)c1ccc(C(F)(F)F)cc1)[C@@H](O)CC1(CCC1)C2 [Example 51, (5S)-2-Isopropyl-4-(4-fluorophenyl)-3-[(S)-hydroxy-(4-trifluoromethylphenyl)-methyl]-7-spirocyclobutyl-5,6,7,8-tetrahydroquinolin-5-ol]
69 | 51 | 44 | 30 | CC(C)c1nc2c(c(-c3ccccc3)c1[C@@H](O)c1ccc(C(F)(F)F)cc1)[C@@H](O)CC1(CCC1)C2 [Example 53, (5S)-2-Isopropyl-4-phenyl-3-[(S)-hydroxy-(4-trifluoromethylphenyl)-methyl]-7-spirocyclobutyl-5,6,7,8-tetrahydroquinolin-5-ol]
71 | 49 | 35 | 40 | CC(C)c1nc2c(c(-c3cccs3)c1[C@@H](O)c1ccc(C(F)(F)F)cc1)[C@@H](O)CC1(CCC1)C2 [Example 61, (5S)-2-Isopropyl-4-(2-thienyl)-3-[(S)-hydroxy-(4-trifluoromethylphenyl)-methyl]-7-spirocyclobutyl-5,6,7,8-tetrahydroquinolin-5-ol]
